# Source: US11678682B2, “Phosphor composition having selected surface coatings” (IMMUNOLIGHT, LLC, priority 2013, dated 2023)
# Read-outs that look alike come from different tables or passages of the source.
# Tests used:
# cells = cells kept in the dark compared to those exposed to light; cited from earlier work
# B16 cancer cells = assay: Clonogenic cell kill (surviving colonies) with x-ray stimulated phosphor mixtures with and without psoralen (AMT); format: cell-based
# Description: Accordingly, combinations of more than two “visible” phosphors can be used in this invention. Discussed below are x-ray settings and mass ratios for clonogenic cell kill experiments. F1 refers to the insertion of an aluminum filter into the x-ray beam to act as a filter.
# Psoralen is known to be activated by UV light in the range from 300 to 400 nm. Thus, a measure of cell kill would normally be assumed to be an indirect measure of the internal generation of UV light.
# FIGS. 18A and 18B is a plotted cell kill comparison (shown here as the number of surviving colonies) between B16 cancer cells treated with and without psoralen (i.e., AMT) with different phosphor mixtures, but otherwise being x-ray stimulated and containing the multiple phosphor combinations noted above. On these drawings, LDLE=low xRT dose, low energy; HDHE=high xRT dose, high energy.
# [1] = system: human bladder cancer cells; details: cited from earlier work
# [2] = system: cisplatin-resistant cells; details: photolyzed complex; cited from earlier work
compound,measurement,setting,value
NCCN.[Cl][Pt]([Cl])([I])[I] [[PtCl2I2(en)]],"cytotoxicity, dark versus light",cells,no difference in cytotoxicity
O=c1ccc2cc3ccoc3cc2o1 [psoralen],"cell kill (number of surviving colonies), with versus without psoralen (FIGS. 18A and 18B)","B16 cancer cells; B16 cells, x-ray stimulated RYG/FYG phosphor mixtures",improved cell kill
same,"clonogenic colony survival, with versus without psoralen (FIG. 19C)","B16 cancer cells; flamingo, yellow, green FYG phosphor combination",pronounced cell kill
same,"cell kill, with versus without psoralen (FIGS. 19A and 19B)",B16 cancer cells; higher kVp x-ray conditions,does not show an increased kill
"Cis,trans,cis-[Pt(N3)2(OH)2(NH3)2]",growth inhibition,[1]; cells treated with the complex and kept in the dark,very little growth inhibition
same,growth inhibition,[1]; photolyzed complex,inhibits the growth
same,growth inhibition,[2],inhibits the growth
